# Results as given in patent US20150343016A1, “CHEMICAL ENTITIES AND THERAPEUTIC USES THEREOF” (The Regents of the University of Colorado, a body corporate, priority 2010, published 2015).
# Key:
# [1] = biological target: in vitro translation in rabbit reticulocytes; assay: In vitro translation assay in rabbit reticulocytes with Luciferase mRNA; type: biochemical
# Procedure: In vitro translation assays were performed in rabbit reticulocytes (Promega) according to manufacturer's instruction, in the presence or absence of Bouvardin at final concentrations shown. Luciferase mRNA provided in the kit was used at a final concentration of 1 ug/ul. The reactions samples were incubated for 15 minutes at 37° C. and quenched by dilution with water. Luciferase activity was measured using a plate reader Multi-Mode Microplate Reader (Synergy 2 by BioTek) immediately after luciferase substrate addition. Samples were also subjected to electrophoresis on SDS-polyacrylamide gels and immunoblotted with goat polyclonal α-luciferase primary antibodies (Promega) and donkey anti-goat IgG, HRP secondary antibodies (Promega). The blots were visualized using chemiluminescence detection (Pierce). (A) Luciferase activity at different concentrations of Bouvardin. Error bars show SEM from triplicate samples. (B) Luciferase protein levels in corresponding samples.
# Drosophila = assay: Sensitizing flies to ionizing radiation (FIG. 7); type: in vivo
# Text: Bouvardin derivatives are depicted in FIG. 4 as a generic Formula III, with the specific derivative used in this example having R1=COOCH3, R2=OCH3, R3=H, R4=Boc, R5=CH3.
# Feeding stage 3rd instar larvae were irradiated as previously described (2). Briefly, 120 hr old larvae were rinsed to remove food and passed through sizing sieves to obtain animals of uniform size. Larvae were placed in a Petri dish and irradiated using a TORREX X-ray generator, set at 115 kV and 5 mA (producing 2.4 Rads/sec or 1.44 Gy/min) Irradiated larvae were then cultured on cornmeal-agar media (2) containing drug or DMSO carrier. In all experiments using human cells, cells in 96-well plates were irradiated with a RS2000 Biological Irradiator (Rad Source Technologies, Inc.) delivering 1 Gy/min.
# [2] = test system: 1586 Head and Neck Cancer cell line; assay: MTT assay, Bouvardin with ionizing radiation, 1586 (pre-treated); type: cell-based, human; settings: 1586 cells
# Procedure: “Combination Index” computation. Combination Indices were calculated using CalcuSyn software (Biosoft), which uses the method of Chou and Talalay. This method first computes drug-induced effect using the Hill Equation: where E is the measured effect; C is the drug concentration; Emax is the full range of drug effect, usually at or near 100%; IC50 is the drug concentration producing the median effect of 50%; and n is the curve shape parameter describing the steepness of the concentration-effect relationship. The Chou and Talalay method then linearizes the Hill Equation by logarithmic transformation as: where fu is the fraction of cells left unaffected after drug exposure, fa is the fraction of cells affected by the exposure, C is the drug concentration used, Cm is the concentration to achieve the median effect, and n is the curve shape parameter. Cm and n are equivalent to IC50 and n, respectively, in the Hill Equation. The values of n (obtained from the slope), nlog(Cm) (obtained from the absolute value of the intercept), and, therefore, Cm are obtained by plotting log(fu−1−1) versus log(C). These numbers are then used to compute the Combination Index (CI) according to the formula: CI=(D)1/(Dx)1+(D)2/(Dx)2 (26). (Dx)1 and (Dx)2 are the doses required to achieve a given effect level for each treatment, i.e. a specified value of Fraction Affected or Fa. (D)1 and (D)2 are the doses of each treatment in a given combination which gives the same Fa.
# The growth inhibitory effects of Bouvardin with ionizing radiation (IR) were evaluated using a modified tetrazolium salt (MTT) assay. In the MTT assay, 1,000 to 2,000 viable cells were plated in 100 uL of growth medium in 96-well plates (Corning, Ithaca, N.Y.). Following an overnight incubation, drug was added in varying concentrations and the plates were irradiated on the same day (co-treatment) or 24 hr later (pre-treatment) and incubated for 6 to 7 days. The tetrazolium salt was added at a concentration of 0.4 mg/mL to each well following the 6- to 7-day treatment. The plates were incubated with the salt for 4 hours at 37° C. At 4 hours, the medium was aspirated off, leaving the dark blue formazan product at the bottom of the wells. The reduced MTT product was solubilized by adding […] of 0.2 N HCl in 75% isopropanol, 23% MilliQ water to each well. Thorough mixing was done using a Titertek multichannel pipetman. The absorbency of each well was measured using an automated plate reader (Molecular Devices, Sunnyvale, Calif.). All experiments were done in triplicate.
# MTT assays were used to determine the effect of Bouvardin (concentrations in uM) in combination with ionizing radiation (in Gy, X-axis). FIG. 14 depicts CI values for Bouvardin and radiation on 3 cell lines. Combination Index data from 3 different Head and Neck Cancer cell lines are shown. Black dashed lines represent a CI value of 1. CI values below 1 indicate synergy. 1586 and UM-SCC19 were pre-treated whereas HN31 was treated on the same day.
structure (smiles),measurement,setting,value
"COc1ccc(C[C@H]2C(=O)N[C@H](C)C(=O)N(C)[C@@H]3C(=O)N(C)[C@@H](Cc4ccc(O)c(c4)Oc4ccc(cc4)[C@H]3O)C(=O)N[C@@H](C)C(=O)N[C@H](C)C(=O)N2C)cc1 (stereo in doubt) [Bouvardin, bouvardin]",IC50 in in vitro translation reactions,[1],nM range
same,effect on in vitro translation (luciferase activity and protein),[1]; 15 minutes at 37° C.,inhibits translation
same,observed effect of drug with radiation versus additive effect,Drosophila,exceeds additive effect of drug and radiation
same,Combination Index,[2]; Bouvardin 0.001 uM + 1 Gy IR,1.553
same,Fraction Affected,[2]; Bouvardin 0.001 uM + 1 Gy IR,0.254
same,Combination Index,[2]; Bouvardin 0.001 uM + 2 Gy IR,0.903
same,Fraction Affected,[2]; Bouvardin 0.001 uM + 2 Gy IR,0.23
same,Combination Index,[2]; Bouvardin 0.001 uM + 4 Gy IR,1.112
same,Fraction Affected,[2]; Bouvardin 0.001 uM + 4 Gy IR,0.503
same,Combination Index,[2]; Bouvardin 0.003 uM + 1 Gy IR,1.898
same,Fraction Affected,[2]; Bouvardin 0.003 uM + 1 Gy IR,0.264
same,Combination Index,[2]; Bouvardin 0.003 uM + 2 Gy IR,1.383
same,Fraction Affected,[2]; Bouvardin 0.003 uM + 2 Gy IR,0.303
same,Combination Index,[2]; Bouvardin 0.003 uM + 4 Gy IR,0.753
same,Fraction Affected,[2]; Bouvardin 0.003 uM + 4 Gy IR,0.51
same,Combination Index,[2]; Bouvardin 0.006 uM + 1 Gy IR,1.626
same,Fraction Affected,[2]; Bouvardin 0.006 uM + 1 Gy IR,0.301
same,Combination Index,[2]; Bouvardin 0.006 uM + 2 Gy IR,1.285
same,Fraction Affected,[2]; Bouvardin 0.006 uM + 2 Gy IR,0.371
same,Combination Index,[2]; Bouvardin 0.006 uM + 4 Gy IR,0.732
same,Fraction Affected,[2]; Bouvardin 0.006 uM + 4 Gy IR,0.634
same,Combination Index,[2]; Bouvardin 0.01 uM + 1 Gy IR,0.433
same,Fraction Affected,[2]; Bouvardin 0.01 uM + 1 Gy IR,0.45
same,Combination Index,[2]; Bouvardin 0.01 uM + 2 Gy IR,1.482
same,Fraction Affected,[2]; Bouvardin 0.01 uM + 2 Gy IR,0.518
same,Combination Index,[2]; Bouvardin 0.01 uM + 4 Gy IR,1.348
same,Fraction Affected,[2]; Bouvardin 0.01 uM + 4 Gy IR,0.604
same,Combination Index,[2]; Bouvardin 0.03 uM + 1 Gy IR,1.211
same,Fraction Affected,[2]; Bouvardin 0.03 uM + 1 Gy IR,0.537
same,Combination Index,[2]; Bouvardin 0.03 uM + 2 Gy IR,0.841
same,Fraction Affected,[2]; Bouvardin 0.03 uM + 2 Gy IR,0.628
same,Combination Index,[2]; Bouvardin 0.03 uM + 4 Gy IR,1.284
same,Fraction Affected,[2]; Bouvardin 0.03 uM + 4 Gy IR,0.624
same,Combination Index,[2]; Bouvardin 0.06 uM + 1 Gy IR,0.898
same,Fraction Affected,[2]; Bouvardin 0.06 uM + 1 Gy IR,0.584
same,Combination Index,[2]; Bouvardin 0.06 uM + 2 Gy IR,0.962
same,Fraction Affected,[2]; Bouvardin 0.06 uM + 2 Gy IR,0.677
same,Combination Index,[2]; Bouvardin 0.06 uM + 4 Gy IR,1.284
same,Fraction Affected,[2]; Bouvardin 0.06 uM + 4 Gy IR,0.813
same,Combination Index,[2]; Bouvardin 0.1 uM + 1 Gy IR,1.815
same,Fraction Affected,[2]; Bouvardin 0.1 uM + 1 Gy IR,0.607
same,Combination Index,[2]; Bouvardin 0.1 uM + 2 Gy IR,3.214
same,Fraction Affected,[2]; Bouvardin 0.1 uM + 2 Gy IR,0.68
same,Combination Index,[2]; Bouvardin 0.1 uM + 4 Gy IR,2.639
same,Fraction Affected,[2]; Bouvardin 0.1 uM + 4 Gy IR,0.712
same,Combination Index,[2]; Bouvardin 0.3 uM + 1 Gy IR,2.656
same,Fraction Affected,[2]; Bouvardin 0.3 uM + 1 Gy IR,0.682
same,Combination Index,[2]; Bouvardin 0.3 uM + 2 Gy IR,2.382
same,Fraction Affected,[2]; Bouvardin 0.3 uM + 2 Gy IR,0.731
same,Combination Index,[2]; Bouvardin 0.3 uM + 4 Gy IR,3.756
same,Fraction Affected,[2]; Bouvardin 0.3 uM + 4 Gy IR,0.708
same,Combination Index,[2]; Bouvardin 0.6 uM + 1 Gy IR,4.194
same,Fraction Affected,[2]; Bouvardin 0.6 uM + 1 Gy IR,0.688
same,Combination Index,[2]; Bouvardin 0.6 uM + 2 Gy IR,4.765
same,Fraction Affected,[2]; Bouvardin 0.6 uM + 2 Gy IR,0.743
same,Combination Index,[2]; Bouvardin 0.6 uM + 4 Gy IR,4.11
same,Fraction Affected,[2]; Bouvardin 0.6 uM + 4 Gy IR,0.745
same,Combination Index,[2]; Bouvardin 1 uM + 1 Gy IR,1.553
same,Fraction Affected,[2]; Bouvardin 1 uM + 1 Gy IR,0.254
same,Combination Index,[2]; Bouvardin 1 uM + 2 Gy IR,0.903
same,Fraction Affected,[2]; Bouvardin 1 uM + 2 Gy IR,0.23
same,Combination Index,[2]; Bouvardin 1 uM + 4 Gy IR,1.112
same,Fraction Affected,[2]; Bouvardin 1 uM + 4 Gy IR,0.503
